From PubChem BioAssay (NCI)
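Cells were grown in 96-well plates and exposed to each compound for 48 hours at five concentrations; endpoints were interpolated linearly between bracketing concentrations, or set to the highest concentration if not reached. Abbreviation: GI50, concentration required for 50% inhibition of growth. At the TGI there is no net growth.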

Tests used:
Assay in all cases: NCI tumour cell line growth inhibition, 48 h
[1] = tested on: 786-0 renal
[2] = tested on: A498 renal
[3] = tested on: A549 NSCLC
[4] = tested on: ACHN renal
[5] = tested on: BT-549 breast
[6] = tested on: CCRF-CEM leukemia
[7] = tested on: COLO 205 colon
[8] = tested on: DU-145 prostate
[9] = tested on: HCC-2998 colon
[10] = tested on: HCT-116 colon
[11] = tested on: HCT-15 colon
[12] = tested on: HL-60(TB) leukemia
[13] = tested on: HOP-62 NSCLC
[14] = tested on: HOP-92 NSCLC
[15] = tested on: HS 578T breast
[16] = tested on: HT29 colon
[17] = tested on: IGROV1 ovarian
[18] = tested on: K-562 leukemia
[19] = tested on: KM12 colon
[20] = tested on: LOX IMVI melanoma
[21] = tested on: M14 melanoma
[22] = tested on: MCF7 breast
[23] = tested on: MDA-MB-231 breast
[24] = tested on: MOLT-4 leukemia
[25] = tested on: NCI-H226 lung
[26] = tested on: NCI-H23 lung
[27] = tested on: NCI-H460 lung
[28] = tested on: NCI-H522 lung
[29] = tested on: NCI/ADR-RES ovarian
[30] = tested on: OVCAR-3 ovarian
[31] = tested on: OVCAR-4 ovarian
[32] = tested on: OVCAR-8 ovarian
[33] = tested on: PC-3 prostate
[34] = tested on: RPMI-8226 leukemia
[35] = tested on: RXF 393 renal
[36] = tested on: SF-268 CNS
[37] = tested on: SF-295 CNS
[38] = tested on: SF-539 CNS
[39] = tested on: SK-MEL-2 melanoma
[40] = tested on: SK-MEL-5 melanoma
[41] = tested on: SK-OV-3 ovarian
[42] = tested on: SN12C renal
[43] = tested on: SNB-19 CNS
[44] = tested on: SNB-75 CNS
[45] = tested on: SR leukemia
[46] = tested on: SW-620 colon
[47] = tested on: T-47D breast
[48] = tested on: U251 CNS
[49] = tested on: MALME-3M melanoma
[50] = tested on: MDA-MB-435
[51] = tested on: OVCAR-5 ovarian
[52] = tested on: SK-MEL-28 melanoma
[53] = tested on: TK-10 renal
[54] = tested on: UACC-257 melanoma
[55] = tested on: UACC-62 melanoma
[56] = tested on: UO-31 renal

Q: What does the source list for `O=C(Nc1ccc2[nH]nc(-c3ccncc3)c2c1)[C@@H]1CCN(CC(=O)N2CCN(c3ccc(-c4ncccn4)cc3)CC2)C1`?
A: GI50 [1]: 47.4 µM; TGI [1]: > 100 µM; GI50 [2]: 0.0778 µM; TGI [2]: 0.533 µM; GI50 [3]: 5.09 µM; TGI [3]: > 100 µM; GI50 [4]: 2.08 µM; TGI [4]: > 100 µM; TGI [5]: > 100 µM; GI50 [6]: 5.49 µM; TGI [6]: > 100 µM; GI50 [7]: < 0.012 µM; TGI [7]: > 82.3 µM; GI50 [8]: 7.58 µM; TGI [8]: > 100 µM; GI50 [9]: 0.241 µM; TGI [9]: > 100 µM; GI50 [10]: 0.0783 µM; TGI [10]: > 44.6 µM; GI50 [11]: 7.79 µM; TGI [11]: > 100 µM; GI50 [12]: 0.132 µM; TGI [12]: > 100 µM; GI50 [13]: 0.281 µM; TGI [13]: > 100 µM; GI50 [14]: 0.105 µM; TGI [14]: 1.81 µM; GI50 [15]: > 100 µM; TGI [15]: > 100 µM; GI50 [16]: 0.0335 µM; TGI [16]: > 100 µM; GI50 [17]: 0.964 µM; TGI [17]: > 100 µM; GI50 [18]: 1.96 µM; TGI [18]: > 73.2 µM; GI50 [19]: 0.431 µM; TGI [19]: > 100 µM; GI50 [20]: 0.0539 µM; TGI [20]: > 100 µM; GI50 [21]: 0.0282 µM; TGI [21]: 0.289 µM; GI50 [22]: > 100 µM; TGI [22]: > 100 µM; GI50 [23]: 0.0528 µM; TGI [23]: > 100 µM; GI50 [24]: 5.22 µM; TGI [24]: > 80.6 µM; GI50 [25]: > 100 µM; TGI [25]: > 100 µM; GI50 [26]: 0.0991 µM; TGI [26]: > 100 µM; GI50 [27]: > 100 µM; TGI [27]: > 100 µM; GI50 [28]: 7.27 µM; TGI [28]: > 100 µM; GI50 [29]: > 100 µM; TGI [29]: > 100 µM; GI50 [30]: > 100 µM; TGI [30]: > 100 µM; GI50 [31]: 5.91 µM; TGI [31]: > 100 µM; GI50 [32]: 3.65 µM; TGI [32]: > 100 µM; GI50 [33]: 13.7 µM; TGI [33]: > 100 µM; GI50 [34]: 4.29 µM; TGI [34]: > 66.7 µM; GI50 [35]: 2.84 µM; TGI [35]: > 100 µM; GI50 [36]: > 69.7 µM; TGI [36]: > 100 µM; GI50 [37]: > 100 µM; TGI [37]: > 100 µM; GI50 [38]: 5.1 µM; TGI [38]: 31.3 µM; GI50 [39]: 0.0269 µM; TGI [39]: 0.223 µM; GI50 [40]: 0.607 µM; TGI [40]: > 100 µM; GI50 [41]: > 100 µM; TGI [41]: > 100 µM; GI50 [42]: > 100 µM; TGI [42]: > 100 µM; GI50 [43]: > 100 µM; TGI [43]: > 100 µM; GI50 [44]: 18.2 µM; TGI [44]: > 90.8 µM; GI50 [45]: 4.41 µM; TGI [45]: > 65.4 µM; GI50 [46]: 0.101 µM; TGI [46]: > 100 µM; GI50 [47]: 2.74 µM; TGI [47]: > 100 µM; GI50 [48]: 0.613 µM; TGI [48]: 18.9 µM

Q: For `CCOC(=O)c1c(N)n(-c2ccccc2)c(=O)n(-c2ccccc2)c1=O`, which TGI [1] is on record?
A: > 100 µM

Q: And the TGI [3]?
A: > 100 µM

Q: What about the TGI [4] of the same compound?
A: > 100 µM

Q: And the TGI [5]?
A: > 100 µM

Q: And the TGI [7]?
A: > 100 µM

Q: What about the TGI [8] of the same compound?
A: > 100 µM

Q: What about the TGI [9] of the same compound?
A: > 100 µM

Q: What about the TGI [11] of the same compound?
A: > 100 µM

Q: What about the TGI [12] of the same compound?
A: > 100 µM

Q: What about the TGI [14] of the same compound?
A: > 100 µM

Q: And the TGI [15]?
A: > 100 µM

Q: And the TGI [16]?
A: > 100 µM

Q: What about the TGI [17] of the same compound?
A: > 100 µM

Q: And the TGI [18]?
A: > 100 µM

Q: What about the TGI [19] of the same compound?
A: > 100 µM

Q: What about the TGI [20] of the same compound?
A: > 100 µM

Q: And the TGI [21]?
A: > 100 µM

Q: What about the TGI [49] of the same compound?
A: > 100 µM

Q: What about the TGI [22] of the same compound?
A: > 100 µM

Q: What about the TGI [23] of the same compound?
A: > 100 µM

Q: And the TGI [50]?
A: > 100 µM

Q: What about the TGI [24] of the same compound?
A: > 100 µM

Q: What about the TGI [25] of the same compound?
A: > 100 µM

Q: And the TGI [26]?
A: > 100 µM

Q: What about the TGI [27] of the same compound?
A: > 100 µM

Q: What about the TGI [28] of the same compound?
A: > 100 µM

Q: What about the TGI [30] of the same compound?
A: > 100 µM

Q: What about the TGI [31] of the same compound?
A: > 100 µM

Q: What about the TGI [51] of the same compound?
A: > 100 µM

Q: What about the TGI [32] of the same compound?
A: > 100 µM

Q: And the TGI [34]?
A: > 100 µM

Q: What about the TGI [35] of the same compound?
A: > 100 µM

Q: And the TGI [36]?
A: > 100 µM

Q: What about the TGI [37] of the same compound?
A: > 100 µM

Q: What about the TGI [39] of the same compound?
A: > 100 µM

Q: What about the TGI [52] of the same compound?
A: > 100 µM

Q: What about the TGI [40] of the same compound?
A: > 100 µM

Q: And the TGI [42]?
A: > 100 µM

Q: And the TGI [43]?
A: > 100 µM

Q: What about the TGI [44] of the same compound?
A: > 100 µM

Q: And the TGI [45]?
A: > 100 µM

Q: What about the TGI [46] of the same compound?
A: > 100 µM

Q: And the TGI [47]?
A: > 100 µM

Q: And the TGI [53]?
A: > 100 µM

Q: What about the TGI [48] of the same compound?
A: > 100 µM

Q: What about the TGI [54] of the same compound?
A: > 100 µM

Q: And the TGI [55]?
A: > 100 µM

Q: What about the TGI [56] of the same compound?
A: > 100 µM
